Results from PubChem BioAssay (NCI).
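Values below derive from 48-hour exposures of cells grown in 96-well plates, with endpoints linearly interpolated between the two concentrations bracketing the appropriate inhibition level. At the TGI there is no net growth.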

Columns and labels:
Experiment in all cases: growth of human tumour cells (NCI), 48 h
[1] = system: HCT-116 colon
[2] = system: HCT-15 colon
[3] = system: HT29 colon
[4] = system: NCI-H226 lung
[5] = system: RPMI-8226 leukemia
[6] = system: RXF 393 renal
[7] = system: SF-295 CNS
[8] = system: SK-MEL-28 melanoma
[9] = system: SK-OV-3 ovarian
[10] = system: UACC-62 melanoma
[11] = system: MDA-MB-435

Compound	TGI [1] [µM]	TGI [2] [µM]	TGI [3] [µM]	TGI [4] [µM]	TGI [5] [µM]	TGI [6] [µM]	TGI [7] [µM]	TGI [8] [µM]	TGI [9] [µM]	TGI [10] [µM]	TGI [11] [µM]
OC12c3ccccc3C1CCCCC2N1CCCC1 (centres undefined)	> 100	> 100	> 100	> 100	> 100	> 100	> 100	> 100	> 100	> 100	–
CC(C)CC(NC(=O)C(C)(CI)Cc1ccccc1)C(=O)Nc1ccccc1 (centres undefined)	> 100	> 100	–	> 100	> 100	> 100	> 100	–	> 100	> 100	> 100
Cc1c(C)c2ccc(OCC(O)COC(C)C)c(C)c2oc1=O (centres undefined)	36	–	> 100	–	44.4	–	> 100	> 100	> 100	> 100	–
COc1ccc2c3c1OC1C(F)C=CC4(O)C(C2)NCCC314 (centres undefined)	3.01	11.1	10.9	30.8	–	7.98	21.9	10.7	10.3	10.5	3.34
CC[C@]12C=CCN3CC[C@@]4(c5cc(N=O)c(OC)cc5N(C)[C@H]4[C@@](O)(C(=O)OC)[C@@H]1OC(C)=O)[C@@H]32	> 100	> 100	> 100	> 100	–	> 100	> 100	> 100	> 100	> 100	74.8
Cc1[nH]c(=O)nc2nc3cc(Cl)cc(Cl)c3c(NC(C)(CO)CO)c12	> 100	> 100	> 100	> 100	–	> 100	> 100	> 100	> 100	> 100	> 100
OC1(C(Sc2cc(C(F)(F)F)cc(C(F)(F)F)c2)Sc2cc(C(F)(F)F)cc(C(F)(F)F)c2)C=CCCC1 (centres undefined)	6.74	4.13	7.24	–	4.8	4.77	6.39	9.12	11.3	7.79	7.03
COC(=O)c1c([N+](=O)[O-])ncn1[C@H]1OC[C@@H](OC(C)=O)[C@@H](OC(C)=O)[C@@H]1OC(C)=O	> 100	> 100	> 100	> 100	–	> 100	> 100	> 100	> 100	> 100	> 100
CCCCN1C(=O)C2Cc3c([nH]c4ccccc34)C(c3cccc(O)c3)N2C1=O (centres undefined)	34.9	37.2	35.7	42.3	51.2	–	31.9	34.3	30	32.3	32.4
Cc1ccc(CC2(C(=O)O)Cc3ccc(C)cc3C2)cc1 (centres undefined)	> 100	> 100	> 100	> 100	> 100	–	> 100	> 100	> 100	> 100	> 100
COc1ccccc1Nc1nc2c([nH]1)c(=O)n(C)c(=O)n2C	–	> 10	> 10	–	> 10	> 10	> 10	> 10	> 10	> 10	> 10
Cc1ccc(CC(Cc2ccccc2C)C(=O)O)c(C(=O)O)c1 (centres undefined)	> 100	> 100	> 100	> 100	> 100	> 100	> 100	> 100	–	–	> 100
O=C(Nc1ccc(C(F)(F)F)cc1)NC(F)(F)F	> 100	> 100	> 100	–	> 100	> 100	–	> 100	> 100	–	> 100
O=C1/C(=C\c2ccc(Cl)cc2)N=C(c2ccccc2)N1n1c(=O)cn[nH]c1=S	> 100	69.5	> 100	–	62.1	–	> 100	> 100	> 100	> 100	87
CCOC1OC(COC(=O)C(C)(C)C)C(O)CC1n1cc(C)c(=O)[nH]c1=O (centres undefined)	> 100	> 100	> 100	> 100	> 100	> 100	> 100	> 100	–	> 100	> 100
O=c1oc2ccc3ccccc3c2cc1-c1nnc(Nc2ccccc2)s1	52.4	> 100	> 100	–	50.9	29.7	83.3	–	–	53.9	> 100
